This note sets out measurements from US20240360148A1 (SUVALENT THERAPEUTICS, INC., priority 2021, published 2024).

The target of test [1] is SAE1 (Homo sapiens (Human), UniProt Q9UBE0+Q9UBT2). Briefly: SAE High Throughput Biochemical Assay (HTRF), 15 min preincubation. The following applies: read-out: 15 min preincubation HTRF IC50 (μM) Ave, SAE1 12.5 nM, ATP 100 μM. Put shortly: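 HTRF detection of SUMO transfer from SUMO-GST to UBC9-His (40 nM each) by SAE1 at 12.5 nM used 100 μM ATP in pH 7.5 HEPES buffer with 10 mM MgCl2 and 0.1% BSA. Enzyme and compound were preincubated 15 min at RT and the reaction ran 45 min, with readings after 2 h and overnight.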
Chain of SAE1 (Q9UBE0 whole entry): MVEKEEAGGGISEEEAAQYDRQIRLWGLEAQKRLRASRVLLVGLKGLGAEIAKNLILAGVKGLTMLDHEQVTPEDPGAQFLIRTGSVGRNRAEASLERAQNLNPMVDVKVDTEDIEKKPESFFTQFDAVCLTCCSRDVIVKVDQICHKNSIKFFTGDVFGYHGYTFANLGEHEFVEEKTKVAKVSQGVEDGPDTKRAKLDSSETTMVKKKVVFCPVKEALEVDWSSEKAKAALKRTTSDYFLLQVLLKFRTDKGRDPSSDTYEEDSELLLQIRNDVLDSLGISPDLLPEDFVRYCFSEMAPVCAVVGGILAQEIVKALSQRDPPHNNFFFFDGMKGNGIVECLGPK
Chain of SAE1 (Q9UBT2 whole entry): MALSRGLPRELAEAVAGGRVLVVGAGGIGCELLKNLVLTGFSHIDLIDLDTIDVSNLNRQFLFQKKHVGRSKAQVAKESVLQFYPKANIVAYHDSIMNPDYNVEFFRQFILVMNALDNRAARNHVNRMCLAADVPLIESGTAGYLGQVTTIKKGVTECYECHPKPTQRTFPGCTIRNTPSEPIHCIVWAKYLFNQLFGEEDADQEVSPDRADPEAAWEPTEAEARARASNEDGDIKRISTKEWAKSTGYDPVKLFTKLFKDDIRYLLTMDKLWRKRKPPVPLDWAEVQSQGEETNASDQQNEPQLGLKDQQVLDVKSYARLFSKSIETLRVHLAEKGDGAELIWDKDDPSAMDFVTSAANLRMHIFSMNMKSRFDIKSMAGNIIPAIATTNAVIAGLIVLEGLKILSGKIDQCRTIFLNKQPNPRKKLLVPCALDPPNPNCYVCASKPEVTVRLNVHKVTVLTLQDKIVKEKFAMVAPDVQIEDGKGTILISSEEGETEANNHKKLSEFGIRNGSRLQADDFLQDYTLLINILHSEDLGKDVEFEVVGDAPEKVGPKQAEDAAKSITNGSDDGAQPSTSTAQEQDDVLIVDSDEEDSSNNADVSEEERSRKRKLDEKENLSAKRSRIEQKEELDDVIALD
Background: TR-FRET usually uses a lanthanide donor and a delayed reading to cut background.

Test [2] deals with sumoylation levels (SUMO 2/3 conjugates) in HCT-116 cells. Briefly: HCT-116 4 Hour Cell Assay (Western, SUMO 2/3 conjugates). Type of test: cell-based. The following applies: Homo sapiens, HCT-116, 4 h, 4 h treatment, Anti-Sumo 2-3 immunoblot, read-out: HCT-116 Western 4 h IC50 (μM) Ave. Put shortly: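 IC50 derived from fluorescent immunoblot quantification of SUMO 2/3 conjugate bands, normalized to total protein, after non-reducing SDS-PAGE. Lysis used RIPA plus NEM; exposure was 4 h across 11 concentrations, three-fold serial dilution starting at 25 μM.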
(Immunoblotting shows a protein as a band on a membrane.)

As usually defined, the IC50 is the concentration that gives 50% inhibition.

In the case of `CCn1cc(-c2c(F)cccc2[C@@H]2CN(C(=O)/C=C/C3CC(F)(F)CN3)Cc3sc(C#N)cc32)c(C(F)(F)F)n1` (stereo partly drawn) [Example 253, (S)-6-((E)-3-((S)-4,4-difluoropyrrolidin-2-yl)acryloyl)-4-((S)-2-(1-ethyl-3-(trifluoromethyl)-1 H-pyrazol-4-yl)-3-fluorophenyl)-4,5,6,7-tetrahydrothieno[2,3-c]pyridine-2-carbonitrile 2,2,2-trifluoroacetate], the IC50 in test [1] is 2.92 µM; in test [2] it was 0.919 µM.

For the molecule `CCn1cc(-c2c(F)cccc2[C@@H]2CN(C(=O)/C=C/CNC(C)(C)C)Cc3sc(C#N)cc32)c(C(F)(F)F)n1` [Example 127, (S, E)-6-(4-(tert-butylamino)but-2-enoyl)-4-(2-(1-ethyl-3-(trifluoromethyl)-1 H pyrazol-4-yl)-3-fluorophenyl)-4,5,6,7-tetrahydrothieno[2,3-c]pyridine-2-carbonitrile], the IC50 amounted to 1.07 µM in test [1] and 0.225 µM in test [2].

As to `CCn1cc(-c2c([C@@H]3CN(C(=O)/C=C/CN(C)C)Cc4sc(C#N)cc43)ccc(O)c2F)c(C(F)(F)F)n1` [Compound 240], the IC50 in test [1] worked out at 0.81 µM; in test [2], 0.187 µM.

As to `C#CCn1cc(-c2ccccc2[C@@H]2CN(C(=O)/C=C/CN(C)C)Cc3sc(C#N)cc32)c(C(F)(F)F)n1` [Example 155, (S, E)-6-(4-(Dimethylamino)but-2-enoyl)-4-(2-(1-(prop-2-yn-1-yl)-3-(trifluoromethyl)-1 H-pyrazol-4-yl)phenyl)-4,5,6,7-tetrahydrothieno[2,3-c]pyridine-2-carbonitrile], the values for the IC50 in test [1] and in test [2] were 3.52 µM and 0.321 µM, respectively.

For the molecule `CN(C)C/C=C/C(=O)N1Cc2sc(C#N)cc2[C@H](c2ccccc2-c2cn(-c3c(F)cncc3Cl)nc2C(F)(F)F)C1` [Example 156, (S,E)-4-(2-(1-(3-Chloro-5-fluoropyridin-4-yl)-3-(trifluoromethyl)-1H pyrazol-4-yl)phenyl)-6-(4-(dimethylamino)but-2-enoyl)-4,5,6,7-tetrahydrothieno[2,3-c]pyridine-2-carbonitrile], the figures for the IC50 in test [1] and in test [2] were 2.91 µM and 0.349 µM, respectively.

As to `CCn1cc(-c2ccccc2[C@@H]2CN(C(=O)/C=C/[C@@H]3C[C@@H](C)CN3)Cc3sc(C#N)cc32)c(C(F)(F)F)n1` [Example 114, (S)-4-(2-(1-Ethyl-3-(trifluoromethyl)-1 H-pyrazol-4-yl)phenyl)-6-((E)-3-((2S, 4R)-4-methylpyrrolidin-2-yl)acryloyl)-4,5,6,7-tetrahydrothieno[2,3-c]pyridine-2-carbonitrile], the results for the IC50 in test [1] and in test [2] were 1.19 µM and 0.262 µM, respectively.

As for `CCn1cc(-c2ccccc2[C@@H]2CN(C(=O)C#CC3CCNC3)Cc3sc(C#N)cc32)c(C(F)(F)F)n1` (stereo partly drawn) [Example 146, (4S)-4-(2-(1-Ethyl-3-(trifluoromethyl)-1 H pyrazol-4-yl)phenyl)-6-(3-(pyrrolidin-3-yl)propioloyl)-4,5,6,7-tetrahydrothieno[2,3-c]pyridine-2-carbonitrile], the figures for the half-inhibitory concentration (IC50) in test [1] and in test [2] were 1.92 µM and 0.501 µM, respectively.

As for `CCn1cc(-c2c(F)cccc2[C@@H]2CN(C(=O)/C=C/CN)Cc3sc(C#N)c(C)c32)c(C(F)(F)F)n1` [Compound 224], the results for the IC50 in test [1] and in test [2] were 0.172 µM and 0.106 µM, respectively.

Take `CCn1cc(-c2ccccc2[C@@H]2CN(C(=O)/C=C/CN3CCCC3C)Cc3sc(C#N)cc32)c(C(F)(F)F)n1` (stereo partly drawn) [Example 31, (4S)-4-(2-(1-ethyl-3-(trifluoromethyl)-1 H-pyrazol-4-yl)phenyl)-6-((E)-4-(2-methylpyrrolidin-1-yl)but-2-enoyl)-4,5,6,7-tetrahydrothieno[2,3-c]pyridine-2-carbonitrile]: the IC50 in test [1] was 10.2 µM; in test [2] it was 0.918 µM.
